Measured values taken from the supplement of paper PMC4862054.

Assays:
Details in all cases: incubation time: 72 h
MDA-MB-468 [1] = assay: drug sensitivity score (DSS), CellTox Green (DSS (AUC-based score)); higher = stronger drug effect (viability inhibition or cytotoxicity); extreme values may be limits of the assay
Summary of the method: (§1)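 Breast cancer cell lines were seeded in 20 µl suspension into 384-well plates already holding compound and incubated for 72 h. Each compound was tested at 5 concentrations in 10-fold steps across its own 10,000-fold range. Plates were normalised to 0.1 % DMSO and a positive kill control after CellTox Green and then CellTiter-Glo readings. The area under the fitted dose-response curve served as the basis for the drug sensitivity score.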

BT-549 [2] = assay: as above
Summary of the method: as §1

HDQ-P1 [3] = assay: as above
Summary of the method: as §1

DU-4475 [4] = assay: as above
Summary of the method: as §1

HCC1599 [5] = assay: as above
Summary of the method: as §1

CAL-51 [6] = assay: as above
Summary of the method: as §1

MDA-MB-436 [7] = assay: as above
Summary of the method: as §1

Hs578T [8] = assay: as above
Summary of the method: as §1

CAL-120 = assay: drug sensitivity score (DSS), CellTiter-Glo (DSS (AUC-based score)); higher = stronger drug effect (viability inhibition or cytotoxicity); extreme values may be limits of the assay
Summary of the method: as §1

MDA-MB-231 = assay: as above
Summary of the method: as §1

CAL-85-1 = assay: as above
Summary of the method: as §1

MDA-MB-453 = assay: as above
Summary of the method: as §1

MCF-10A = assay: as above
Summary of the method: as §1

SK-BR-3 = assay: as above
Summary of the method: as §1

MDA-MB-468 [9] = assay: as above
Summary of the method: as §1

BT-474 = assay: as above
Summary of the method: as §1

MFM-223 = assay: as above
Summary of the method: as §1

BT-549 [10] = assay: as above
Summary of the method: as §1

HDQ-P1 [11] = assay: as above
Summary of the method: as §1

HCC1937 = assay: as above
Summary of the method: as §1

DU-4475 [12] = assay: as above
Summary of the method: as §1

HCC1599 [13] = assay: as above
Summary of the method: as §1

CAL-148 = assay: as above
Summary of the method: as §1

HCC1143 = assay: as above
Summary of the method: as §1

CAL-51 [14] = assay: as above
Summary of the method: as §1

MDA-MB-436 [15] = assay: as above
Summary of the method: as §1

Hs578T [16] = assay: as above
Summary of the method: as §1

SMILES	drug sensitivity score (MDA-MB-468 [1])	drug sensitivity score (BT-549 [2])	drug sensitivity score (HDQ-P1 [3])	drug sensitivity score (DU-4475 [4])	drug sensitivity score (HCC1599 [5])	drug sensitivity score (CAL-51 [6])	drug sensitivity score (MDA-MB-436 [7])	drug sensitivity score (Hs578T [8])	drug sensitivity score (CAL-120)	drug sensitivity score (MDA-MB-231)	drug sensitivity score (CAL-85-1)	drug sensitivity score (MDA-MB-453)	drug sensitivity score (MCF-10A)	drug sensitivity score (SK-BR-3)	drug sensitivity score (MDA-MB-468 [9])	drug sensitivity score (BT-474)	drug sensitivity score (MFM-223)	drug sensitivity score (BT-549 [10])	drug sensitivity score (HDQ-P1 [11])	drug sensitivity score (HCC1937)	drug sensitivity score (DU-4475 [12])	drug sensitivity score (HCC1599 [13])	drug sensitivity score (CAL-148)	drug sensitivity score (HCC1143)	drug sensitivity score (CAL-51 [14])	drug sensitivity score (MDA-MB-436 [15])	drug sensitivity score (Hs578T [16])
CCn1c(-c2nonc2N)nc2cnc(Oc3cccc(NC(=O)c4ccc(OCCN5CCOCC5)cc4)c3)cc21	0.303	0	0	0	0	11.2	0	0	6.49	3.83	0	0	6.73	4.64	0	5.28	0	5.62	1.87	0	0.276	0	2.07	0	4.84	1.31	6.04
N#Cc1ccc(COC[C@H]2O[C@@H](n3c(NCc4ccc(Cl)c(Cl)c4)nc4c(N)ncnc43)[C@H](O)[C@@H]2O)cc1	0	0	0	0	0	0	0	0	0	0	0	0	1.78	2.28	2.09	3.43	0.407	3.44	1.31	3.1	2.77	0	0	1.09	0	0	1.73
COc1cc(O)c2c(c1)/C=C/C[C@H](O)[C@H](O)C(=O)/C=C\C[C@H](C)OC2=O [(5Z)-7-Oxozeaenol]	0	0	0	4.86	0	1.06	0	8.72	4.12	9.42	12.4	1.38	9.62	2.34	9.6	7.43	5.76	14	7.51	5.41	20	3.26	7.16	2	4.7	7.08	5.42
COc1cc(OC2CCN(C)CC2)ccc1Nc1ncc2c(n1)n(C1CCCC1)c(=O)n2C [AZ 3146]	0	0	0	0	2.26	9.75	4.7	0	0.593	0	2.31	0	2.22	4.5	2.06	2.51	0	0	0	0	0	1.58	0	0	5.98	0	0
CNC(=O)c1cccc(-c2ccc3c(N4CCOC[C@@H]4C)nc(N4CCOC[C@@H]4C)nc3n2)c1 [AZD2014]	0	0	0	0	0	0	0	0	14.9	8.36	13.2	13.5	10.3	18.4	11.4	8.78	15.7	15.3	14.8	9.48	7.74	0.92	13.8	12.7	17.4	11.1	11.4
CN(C)c1nc(N(C)C)nc(N(C)C)n1 [Altretamine]	0	0	0	0	0	0	0	0	0	0	0	0	0	0	0	0	0	0	0	0	0	0	0	0	0	0	0
O=C(/C=C/c1cccc(S(=O)(=O)Nc2ccccc2)c1)NO [Belinostat]	2.85	0	0	3.83	0	13	0	6.63	13.1	14	12.6	20.4	10.8	18.3	14.7	14.9	13.9	9.61	8.05	7.92	15.9	12.1	16.1	11.6	18.6	10.5	11
Nc1cc(C(F)(F)F)c(-c2cc(N3CCOCC3)nc(N3CCOCC3)n2)cn1 [Buparlisib]	0	1.91	0	0	0	6.04	0	2.89	2.39	3	0	0	9.62	0	6.3	3.23	10	7.05	6.14	3.29	1.54	0	0	1.75	7.02	0	1.39
O=P1(N(CCCl)CCCl)NCCCO1 (stereo unspecified) [Cyclophosphamide]	–	0	0	0	0	0	0	–	0	0	0	0	0	0	0	0	0	0	0	0	0	0	0	0	0	0	0
NC(=O)c1ccc(I)c([N+](=O)[O-])c1 [Iniparib]	0	0	1.99	0	0	0.811	0	–	0	0	0	0	0	0	3.75	0	0	0	0	0	0	0	0	0	0	3.5	0
Cc1ccc(NC(=O)c2ccc(CN3CCN(C)CC3)cc2)cc1Nc1nc(-c2cccnc2)cs1 [Masitinib]	1.39	0	0	0	0.597	0	–	1.55	0	1.26	0	3.95	0	1.79	4.71	1.81	0.34	3.23	0.939	0.648	0	1.31	0	0	4.22	0	0
O=C(Nc1cccnc1)N1CCC(Cc2cccc(Oc3ccc(C(F)(F)F)cn3)c2)CC1 [PF-3845]	0	0	–	0	0	0	0	0	0.24	0	0.0221	0	0	0	3.47	0	0	1.34	0	0	0	1.04	0	0	2.47	0	0
COCC1(CO)C(=O)C2CCN1CC2 (stereo unspecified) [Prima-1 Met]	0	0	0	0	0	0	–	0	0	0	0	0	0	0	0	0	0	2.79	0	0	0	0	0	0	0	0	0
S=P(N1CC1)(N1CC1)N1CC1 [Thio-TEPA]	0	0	0	0	0	–	0	3.7	0	0	0	0	0	0	0	0	0	1.83	0	0	0	0	0	0	0	0	0
